Measured values from US20030072726A1, “Skin lightening agents” (priority 1999, published 2003).
≈ marks a conversion by molar mass, not a printed value. Like-named read-outs stand apart in the source and are kept apart here.

Assays:
[1] = Solubilities of compounds of the invention; type: physicochemical
B16-F1 cells = assay: Melanogenesis inhibition (skin lightening) assay in cultured melanocyte cells, secreted melanin OD405; type: cell-based; set-up: Melanogenesis Inhibition Activity: scale not given here; conditions: for Melanogenesis Inhibition Activity: B16-F1 cells, 96 hours
Experimental: These were conducted using cultured melanocyte cells exposed to dilutions of the best materials, and compared with kojic acid, a brown skin lightener. The degree of melanin production was inversely proportional to the skin lightener activity. Any cytotoxic effect of the test materials is reflected in a decrease in melanin formation. Each 96 well assay plate included a solvent control and a blank control. […] When the cell cultures were 50 to 80% confluent, the growth medium was removed from the flasks and the cultures rinsed with 10 ml of HBSS. 2 ml of trypsin/EDTA solution was added and the flasks were incubated at 37° C.+/−1° C. for 2 to 5 minutes. When the cells started to dislodge, the flask was rapped sharply against the palm of the hand and approximately 5 ml of assay medium added to neutralise the trypsin. The concentration of cells was determined by counting an aliquot of the stock cell suspension in a haemocytometer. A seeding suspension of 5×10^4 cells/ml was prepared in assay medium. One hundred microlitres of the seeding cell suspension was added to the appropriate wells on each 96 well plate. One hundred microlitres of growth medium was added to the outer wells to maintain humidity. The cells were incubated at 37+/−1° C. in a humidified atmosphere containing 5+/−1% CO2 in air for 24 hours. Based on the information available for the test article, eight decreasing doses were selected and used in the assay. […] In the case of the mixture of protocatechuic acid and arbutin, a 1 to 1 w/w mixture of each was used in each assay with the concentration of each in the highest dose assay being 2.5 mg/ml, and then pro rata in the dilutions assayed in the other 7 assays. […] The test article and positive control was tested by treating six wells per dilution of B16-F1 cells seeded approximately 24 hours earlier. Prior to treatment the medium was removed, and 200 μl of the pre-warmed (37 +/−1° C.) test article dilutions, positive control dilutions and solvent control, were added to the appropriate wells. All test article concentrations were dosed into a single outer well (200 μl) of the corresponding plate to serve as a turbidity control. The remaining wells around the edge of the plate, designated as blanks, received 200 μl of assay medium prior to incubation. Following dosing, the plates were incubated at 37+/−1° C. for 96 hours +/−2 hours. After exposure, 150 μl of each treatment solution (containing any secreted melanin) was removed and transferred to the corresponding wells of a new 96 well plate (melanin production plate). Turbidity controls were also transferred. The absorbance of the melanin present in the melanin production plates was measured at 405 nm (OD405) with an Anthos 2010™microplate reader. The mean of the six OD405 values for each concentration of test article and positive control was calculated. The turbidity control values were subtracted to obtain a correct OD405 value. The mean of the six OD405 values for the corresponding negative or solvent control were calculated by subtracting the blank control value. The corrected OD405 values of the test article or positive control was divided by the corrected OD405 value for the negative or solvent control to obtain a melanin production ratio.

[2] = Taste, odour and colour of compounds of the invention; type: physicochemical; conditions: determined at effective concentrations
[3] = aqueous buffer, water, pH 7.0, read-out: Solubility Water (pH 7.0)
[4] = ethanol, organic solvent or mixture, read-out: Solubility Ethanol
[5] = oil, oil or lipid, read-out: Solubility Oil
[6] = ethylene glycol, organic solvent or mixture, read-out: Solubility Ethylene Clycol

Structure (SMILES) | solubility [1, 3] | solubility [1, 4] | solubility [1, 5] | Melanogenesis Inhibition Activity (B16-F1 cells; 0.015 mg/ml) | Melanogenesis Inhibition Activity (B16-F1 cells; 0.05 mg/ml) | Melanogenesis Inhibition Activity (B16-F1 cells; 0.15 mg/ml) | Melanogenesis Inhibition Activity (B16-F1 cells; 0.5 mg/ml) | Melanogenesis Inhibition Activity (B16-F1 cells; 1.5 mg/ml) | Melanogenesis Inhibition Activity (B16-F1 cells; 5 mg/ml) | Melanogenesis Inhibition Activity (B16-F1 cells; 15 mg/ml) | Taste/Odour [2] | Colour (Solution in Ethanol) [2] | solubility [1, 6] | skin lightening effect when used together with another skin lightening agent (B16-F1 cells; arbutin used together with protocatechuic acid)
C=Cc1ccc(O)c(OC)c1 [Vinylguaiacol, 4-Vinyl-2-methoxyphenol] | > 2 mg/mL | > 100 mg/mL | > 50 mg/mL | 3 | 6 | 10 | 1 | 0 | 0 | 0 | Cloves | Colourless | – | –
CCc1ccc(O)c(OC)c1 [Ethylguaiacol, 4-Ethyl-2-methoxyphenol] | – | – | – | 2 | 8 | 14 | 17 | 0 | 0 | 0 | Smoky | Colourless | 250 mg/mL (≈ 1640 mM) | –
OC[C@H]1O[C@@H](Oc2ccc(O)cc2)[C@H](O)[C@@H](O)[C@@H]1O [Arbutin, reference compound] | – | – | – | 0 | 1 | 4 | 11 | 17 | 14 | 11 | – | – | – | –
O=c1cc(CO)occ1O [Kojic acid, reference compound] | – | – | – | 0 | 0 | 0 | 2 | 57 | 170 | 255 | – | – | – | –
O=C(O)c1ccc(O)c(O)c1 [Protocatechuic acid, 3,4-Dihydroxybenzoic acid] | > 300 mg/mL | > 500 mg/mL | < 0.2 mg/mL | 0.5 | 2 | 1 | 3 | 7 | 0 | 0 | None | Colourless | 250 mg/mL (≈ 1620 mM) | synergistic skin lightening effect
